Source: patent publication US20260337177A1, “TEAD CORE INHIBITORS FOR CANCER THERAPEUTICS” (University of Florida Research Foundation, Incorporated, priority 2023, published 2026)

Key:
HepG2 cells [1] = test: MTT assay, HepG2 survival; assay type: cell-based, human; conditions: FIG. 7
CTGF = CTGF protein expression by western blotting in Huh7 cells; assay type: cell-based, human; conditions: dose-dependent
Description: Treated Huh7 cells were harvested and lysed in cold RIPA lysis buffer containing […] and phosphatase inhibitors. The protein concentrations were determined using the BCA Protein Assay kit. The prepared protein samples were loaded on and separated by 10% SDS-PAGE gel and then were transferred to PVDF membrane. Blots were blocked for 1 h at RT in blocking buffer and incubated with corresponding primary antibodies: anti-CTGF (ab227180), and anti-GAPDH (ab9485), at 4 ° C overnight. Then the blots were incubated with HRP-conjugated anti-rabbit secondary antibody in blocking buffer for 1.5 h at RT. The membranes were imaged with ChemiDoc MP imaging system.

Hs578T cells = test: Hs578T cell growth inhibition (CCK-8, 3 days); assay type: cell-based; conditions: Homo sapiens, Hs-578T, 72 h, triple negative breast cancer, read-out: Antiproliferative IC50, Hs578T
Description: The inhibitory effects of compound 22 were assessed against YAP TEAD related NF2-deficient mesothelioma cell NCI-H226 and triple negative breast cancer cell Hs578T. The growth inhibition ratio was measured using a CCK-8 assay after 3 days of treatments.

TEADs = test: TEAD-specific 8×GTIIC-luciferase reporter assay; assay type: cell-based
Description: A series of compounds featuring a chloromethyl ketone moiety were synthesized (Schemes 1-4). The inhibitory rate of this series of compounds was tested using 8×GTIIC-luciferase reporter assay at 10 μM.
Next, the inhibition of TEAD transcription activity of compounds was tested varying the dosage using the 8×GTIIC-luciferase reporter assay. […] The aim was to determine whether its inhibition of TEAD transcription can lead to downregulation of the YAP-TEAD target genes. CTGF is one of the best characterized (bona fide) target gene of YAP and TAZ.
To further investigate the mechanism of the inhibitory effect of compounds in Huh7 cells, TEADs specific luciferase reporter assays were performed with compounds 22 and 12 at several concentrations. […] TEAD downstream gene expression patterns were evaluated in liver cancer cells Huh7, which has been evidenced with relative high expression of YAP and TEAD2.
HEK 293T cells were plated at 2×10^4 cells/well in a 96 well microplate and were transfected with 50 ng of 8×GTIIC-luciferase plasmid (Addgene #34615) and 0.5 ng of pRL-CMV (Promega #E226A) by using lipofectamine 3000 (Life Technologies #L3000). The 8×GTIIc-luciferase reporter is a Yap/Taz-activity reporter containing eight TEAD consensus binding sequences. After 6 h, transfected cells were treated with various concentrations of compounds or DMSO control. Luciferase signals were measured using the Dual Luciferase Reporter Assay System (Promega, E1960) according to the manufacturer's instructions. Experiments were performed in triplicate and repeated at least three times.

Huh7 cells = test: Apoptosis by Annexin V/PI flow cytometry, Huh7; assay type: cell-based, human; conditions: 48 h
Description: In order to gain deeper insights into the underlying anticancer mechanism of compound 22, experiments were performed to validate whether the induction of G1 phase cells by compound 22 was linked to apoptosis. To achieve this, the cells treated with compound 22 were subjected to PI and FITC-annexin V staining to detect apoptotic cells. […] The proportions of total apoptosis including the early stage apoptosis and the later stage of apoptosis were 66.8%, and 83.5%, respectively, at concentrations of 5 and 10 μM. This trend was similarly observed in the case of HepG2 cells. […] The impact of compound 22 on inducing cell apoptosis was less pronounced in HepG2 cells compared to Huh7 cells, aligning with the outcomes of the cell cycle analysis, providing further coherence to the observed effects of compound 22 on these cell lines.
Apoptosis was detected using an Annexin V-FITC apoptosis detection kit (Thermo Fisher Scientific) following the manufacturer’ instructions. Briefly, about 50000 cells were suspended in 500 μl of binding buffer. The cells were incubated with 5 μl FITC-conjugated Annexin V for 15 minutes and incubated with 5 μl propidium Iodide staining solution for 15 minutes in darkness at room temperature. Cell apoptosis was then analyzed by flow cytometry using a FACSCalibur flow cytometer (Becton Dickinson, San Jose, CA).

TAZ-TEAD = test: Co-immunoprecipitation of endogenous TAZ and TEAD in NCI-H226 cells; assay type: cell-based; conditions: 1 μM, 24 hours
Description: To assess if compound 22 inhibits the interaction between YAP/TAZ and TEAD proteins within the cell, compound 22 was administered to NF2-deficient NCI-H226 cells for 24 hours. Subsequently, the endogenous TEAD protein was isolated through immunoprecipitation using a pan-TEAD antibody and examined the immunocomplexes for the presence of YAP/TAZ proteins using anti-YAP/TAZ antibodies (as depicted in FIG. 18).
[…] protein lysate extracted using lysis buffer were incubated with 5 μL pan-TEAD antibody (CST #13295, 33 g/ml) at 4 ° C overnight with rotation, and then incubated with 15 μL Protein G magnetic beads (Fisher #88847) at R.T. for 1 hour with rotation. After binding, beads were washed three times with lysis buffer and one time with ddH2O. IP samples were eluted using 1× gel loading buffer supplied with 20 mM DTT and boiled at 96 ° C for 10 min. […] protein lysate were used for input, and 3% IP flow-thru were used for binding efficiency control. *0 indicated DMSO control. For the detection process, primary antibodies used were: YAP/TAZ rabbit monoclonal antibody (mAb) at a dilution of 1:2000, CST #8418S; Pan-TEAD rabbit mAb at 1:2000, CST #13295S; and 3-actin mouse mAb at 1:8000, Sigma #A5316. Secondary antibodies applied in 1× TBST were: Rabbit IgG-HRP at 1:10000 and Mouse IgG-HRP also at 1:10000.

HepG2 cells [2] = test: Cell cycle analysis by flow cytometry, HepG2; assay type: cell-based, human; conditions: 5 and 10 μM
Description: To study the potential mechanistic pathways responsible for cell proliferation inhibition by compound 22, the change of cell cycle in Huh7 and HepG2 liver cancer cell lines was evaluated. DNA-based cell cycle analysis was performed using flow cytometry. […] To explore whether compound 22 also induces G1 phase arrest in HepG2 cells similar to its effects on Huh7 cells, parallel investigations were performed. […] However, the impact of 22 on inducing G1 phase arrest was less pronounced in HepG2 cells compared to Huh7 cells.
For cell cycle analysis, cells were fixed with pre-cold 70% ethanol for 30 minutes. Then the cells were washed with PBS and stained with propidium iodide working solution for 30 minutes in the dark. The stained cells were analyzed by flow cytometry. Cell cycle distribution was analyzed using FlowJo_V10 software. For each experiment, 20000 events per sample were recorded. Percentages of cells in G0/G1, S and G2/M phases were calculated and shown in DNA histograms.

HepG2 cells [3] = test: HepG2 cell growth inhibition; assay type: cell-based; conditions: Homo sapiens, FIG. 25A

SMILES: O=C(CCl)c1c[nH]c2cc(Cl)c(OCc3cccc(C(F)(F)F)c3)cc12 [Compound 22, 2-chloro-1-(6-chloro-5-((3-(trifluoromethyl)benzyl)oxy)-1H-indol-3-yl)ethan-1-one]
- HepG2 survival, MTT assay (HepG2 cells [1]): inhibits
- CTGF protein expression, Huh7 (CTGF): suppression of CTGF protein production
- IC50 (Hs578T cells): 2600 nM
- inhibition at 10 µM (TEADs; 10 μM, 8×GTIIC-luciferase, read-out: Luciferase reporter assay inhibitory rate): 93.6%
- IC50 (TEADs; dose response, read-out: TEADs transcription inhibition IC50, luciferase reporter assay): 2100 nM
- Proportion of total apoptosis (early + late), Huh7 (Huh7 cells; 5 μM): 66.8%
- Proportion of total apoptosis (early + late), Huh7 (Huh7 cells; 10 μM): 83.5%
- Co-IP of TAZ with pan-TEAD antibody (TAZ-TEAD): not affecting TAZ
- Accumulation in G1 phase, HepG2 (HepG2 cells [2]): accumulation of HepG2 cells in the G1 phase
- IC50 (HepG2 cells [3]): 2400 nM
